From PMC9287434, “Inhibition of NMDA receptors through a membrane-to-channel path” (Nature Communications, 2022)
Structures can show the parent of a compound that is named as a salt.

Legend:
[1] = target: T1, GluN1/2A receptors (Rattus norvegicus, UniProt P35439+Q00959); assay: MCI protocol, whole-cell recording from GluN1/2A NMDAR-expressing tsA201 cells; assay type: cell-based
T1 construct: expressed in transfected cells; host or cells: tsA201 cells (HEK 293 variant)
Protocol: (§1) Wildtype or mutant GluN1/2A receptors were used for all tsA201 cell experiments. 12–24 h after plating, tsA201 cells were transiently co-transfected using FuGENE6 Transfection Reagent (Promega) with mammalian expression plasmids that contained cDNAs encoding enhanced green fluorescent protein (EGFP in pRK7) for identification of transfected cells, the rat GluN1-1a subunit (referred to as GluN1; GenBank X63255 in pcDNA3.1), and the rat GluN2A subunit (GenBank M91561 in pcDNA1). For some experiments cells were transfected with GluN1 and EGFP:pIRES:GluN2A (a generous gift from Dr. Kasper Hansen (Hansen, unpublished)), which was constructed by inserting EGFP in pIRES (Clontech) under transcriptional control of the CMV promoter, and rat GluN2A cDNA (GenBank D13211) after the IRES sequence. Voltage clamp recordings were performed on tsA201 cells 12–48 h after transfection.
(§2) Pipettes were pulled from borosilicate capillary tubing (Sutter Instruments) on a Flaming Brown P-97 microelectrode puller (Sutter Instruments) and polished with a heated filament to a resistance of 2–5 MΩ. Whole-cell recordings were made from cells expressing eGFP identified by epifluorescence illumination on an inverted Zeiss Axiovert microscope. Cells were held at a Vm of −65 mV (corrected for a liquid junction potential of −6 mV) unless otherwise indicated. Whole-cell currents were recorded using an Axopatch 200B patch-clamp amplifier (Molecular Devices). Series resistance was compensated 80–90% using the prediction and correction circuitry. […] NMDAR responses were activated by fast perfusion of 1 mM glutamate (tsA201 cells) or 100 μM NMDA (cultured neurons).
Solutions were delivered to cells using a ten-barrel fast perfusion system. […] If channel blocker remained in the extracellular solution after the 1-s wash, measurements of MCI could have been contaminated by inhibition due to traditional open channel block.
We averaged minima of IControl2/IControl1 and IControl1/IControl2 to control for any possible rundown or runup of NMDAR response. For pH jump experiments, to control also for possible delayed effects of the pH jump on NMDAR responses, the minimum IMCI/IControl value was measured using an additional set of experiments.

[2] = target: T2, GluN1/2A(M630A) receptors (Rattus norvegicus, UniProt P35439+Q00959, M630A); assay: MCI protocol, GluN1/2A(M630A)
T2 sequence (Q00959 23-1464 M630A, other chains not shown): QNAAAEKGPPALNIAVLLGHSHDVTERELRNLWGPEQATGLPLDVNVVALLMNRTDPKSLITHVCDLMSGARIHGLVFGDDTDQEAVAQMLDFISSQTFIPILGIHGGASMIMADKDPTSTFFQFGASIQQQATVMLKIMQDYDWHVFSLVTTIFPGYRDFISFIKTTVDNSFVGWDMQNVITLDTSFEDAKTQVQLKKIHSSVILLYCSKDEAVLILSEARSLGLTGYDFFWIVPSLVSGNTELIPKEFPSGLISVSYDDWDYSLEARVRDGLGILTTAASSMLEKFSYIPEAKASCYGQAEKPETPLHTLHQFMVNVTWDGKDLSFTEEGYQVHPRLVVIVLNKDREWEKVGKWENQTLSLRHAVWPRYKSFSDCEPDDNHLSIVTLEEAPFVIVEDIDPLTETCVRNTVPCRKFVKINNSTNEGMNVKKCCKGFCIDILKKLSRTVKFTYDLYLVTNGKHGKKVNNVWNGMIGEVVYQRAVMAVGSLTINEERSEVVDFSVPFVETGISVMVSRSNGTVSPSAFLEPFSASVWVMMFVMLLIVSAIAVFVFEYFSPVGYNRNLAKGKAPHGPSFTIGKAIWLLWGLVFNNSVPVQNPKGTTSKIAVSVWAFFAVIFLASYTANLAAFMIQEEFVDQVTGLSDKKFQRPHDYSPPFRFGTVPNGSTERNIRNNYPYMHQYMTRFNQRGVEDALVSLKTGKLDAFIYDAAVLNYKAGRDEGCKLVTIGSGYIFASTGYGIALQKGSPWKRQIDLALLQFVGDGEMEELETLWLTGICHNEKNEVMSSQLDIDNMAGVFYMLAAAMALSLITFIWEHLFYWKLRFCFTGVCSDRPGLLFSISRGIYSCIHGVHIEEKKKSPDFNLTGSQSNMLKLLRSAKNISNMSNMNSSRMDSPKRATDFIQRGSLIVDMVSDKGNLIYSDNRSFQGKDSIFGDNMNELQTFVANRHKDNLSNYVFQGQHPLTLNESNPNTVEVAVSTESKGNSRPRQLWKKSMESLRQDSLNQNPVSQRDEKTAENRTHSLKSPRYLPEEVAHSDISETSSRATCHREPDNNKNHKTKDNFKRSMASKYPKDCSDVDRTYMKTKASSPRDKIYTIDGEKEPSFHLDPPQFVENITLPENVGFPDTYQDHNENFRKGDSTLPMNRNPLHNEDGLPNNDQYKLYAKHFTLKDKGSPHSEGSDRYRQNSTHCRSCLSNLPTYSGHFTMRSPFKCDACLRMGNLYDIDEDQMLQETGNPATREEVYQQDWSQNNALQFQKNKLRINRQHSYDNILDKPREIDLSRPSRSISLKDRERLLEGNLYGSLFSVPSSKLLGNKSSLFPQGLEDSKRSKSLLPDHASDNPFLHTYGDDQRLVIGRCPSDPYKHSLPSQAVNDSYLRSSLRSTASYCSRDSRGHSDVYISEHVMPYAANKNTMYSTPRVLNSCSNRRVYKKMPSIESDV

[3] = cited from earlier work
[4] = test system: NMDAR; settings: 30 μM intracellular memantine; cited from earlier work
[5] = target: T1, GluN1/2A receptors; assay: Traditional channel block (coapplication of drug and agonists), tsA201 cells; assay type: cell-based
Protocol: as §1, §2

[6] = test system: NMDARs; settings: cited from earlier work
[7] = parameters: method as in PMID 7086822; settings: measured pKa; cited from earlier work
[8] = test system: native NMDARs in cultured neurons; settings: cited from earlier work
[9] = target: T2, GluN1/2A(M630A) receptors; assay: Traditional [memantine]-inhibition curve, GluN1/2A(M630A)
[10] = pKa, charged/uncharged fraction in aqueous solution; assay type: physicochemical
From the text: [36]). […] We tested this prediction by measuring the dependence of MCI on extracellular pH. A similar approach was used to study membrane partitioning of local anesthetics during VGSC inhibition[23],[24],[27].

[11] = target: T3, GluN1/2A(M630W) receptors (Rattus norvegicus, UniProt P35439+Q00959, M630W); assay: Traditional [memantine]-inhibition curve, GluN1/2A(M630W)
T3 sequence (Q00959 23-1464 M630W, other chains not shown): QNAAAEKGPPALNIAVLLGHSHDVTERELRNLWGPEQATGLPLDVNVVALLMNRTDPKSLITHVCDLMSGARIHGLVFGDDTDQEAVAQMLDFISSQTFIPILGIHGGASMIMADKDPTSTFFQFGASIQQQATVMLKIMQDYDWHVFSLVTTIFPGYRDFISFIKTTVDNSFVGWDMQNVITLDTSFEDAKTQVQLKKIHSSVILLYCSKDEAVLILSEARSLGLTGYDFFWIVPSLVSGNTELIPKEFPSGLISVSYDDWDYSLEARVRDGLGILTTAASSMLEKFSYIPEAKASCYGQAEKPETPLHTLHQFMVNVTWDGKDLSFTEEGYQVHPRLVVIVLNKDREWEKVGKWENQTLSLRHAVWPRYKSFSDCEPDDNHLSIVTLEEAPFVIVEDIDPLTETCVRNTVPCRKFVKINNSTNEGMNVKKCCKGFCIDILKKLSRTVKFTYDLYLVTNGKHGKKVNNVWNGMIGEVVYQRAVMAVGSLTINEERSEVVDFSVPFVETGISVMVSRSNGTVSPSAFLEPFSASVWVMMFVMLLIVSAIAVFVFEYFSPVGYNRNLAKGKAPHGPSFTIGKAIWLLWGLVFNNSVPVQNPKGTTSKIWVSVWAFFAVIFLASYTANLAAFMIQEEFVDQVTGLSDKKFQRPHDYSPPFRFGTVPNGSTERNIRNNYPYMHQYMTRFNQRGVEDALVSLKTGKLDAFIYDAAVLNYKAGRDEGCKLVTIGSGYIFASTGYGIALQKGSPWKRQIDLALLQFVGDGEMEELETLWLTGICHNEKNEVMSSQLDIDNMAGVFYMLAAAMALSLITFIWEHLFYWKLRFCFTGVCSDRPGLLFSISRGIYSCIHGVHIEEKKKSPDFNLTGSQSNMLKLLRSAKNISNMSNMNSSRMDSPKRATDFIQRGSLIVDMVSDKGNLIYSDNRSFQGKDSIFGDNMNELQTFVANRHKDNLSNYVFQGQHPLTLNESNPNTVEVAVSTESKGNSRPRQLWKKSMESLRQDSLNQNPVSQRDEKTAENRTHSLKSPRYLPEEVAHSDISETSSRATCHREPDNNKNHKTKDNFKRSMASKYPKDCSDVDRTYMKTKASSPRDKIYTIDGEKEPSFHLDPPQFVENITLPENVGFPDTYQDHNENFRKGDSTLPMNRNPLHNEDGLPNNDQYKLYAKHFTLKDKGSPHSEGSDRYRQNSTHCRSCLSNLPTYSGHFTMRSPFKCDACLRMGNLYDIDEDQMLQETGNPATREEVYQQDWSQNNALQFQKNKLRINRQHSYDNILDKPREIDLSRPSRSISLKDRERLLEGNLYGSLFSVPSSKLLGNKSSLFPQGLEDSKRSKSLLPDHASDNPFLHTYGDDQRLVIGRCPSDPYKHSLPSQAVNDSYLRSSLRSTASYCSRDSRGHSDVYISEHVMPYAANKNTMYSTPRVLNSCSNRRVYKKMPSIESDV

[12] = target: T3, GluN1/2A(M630W) receptors; assay: MCI protocol, GluN1/2A(M630W)
[13] = test system: native NMDARs in cultured neurons; assay: MCI protocol, neurons in primary culture; assay type: cell-based, rat; settings: 1 μM MK-801, pH 7.2, cultured neurons, 100 μM NMDA
[14] = test system: cultured neurons; parameters: method as in PMID 8570022; settings: cultured neurons held at −70 mV; read-out: IC50 (previous value); cited from earlier work
[15] = pH 7.2, WT, −65 mV, read-out: traditional IC50
[16] = constant pH 9.0, 1 mM TMM, 165 μM DMM

T1 sequence (Q00959 23-1464, other chains not shown): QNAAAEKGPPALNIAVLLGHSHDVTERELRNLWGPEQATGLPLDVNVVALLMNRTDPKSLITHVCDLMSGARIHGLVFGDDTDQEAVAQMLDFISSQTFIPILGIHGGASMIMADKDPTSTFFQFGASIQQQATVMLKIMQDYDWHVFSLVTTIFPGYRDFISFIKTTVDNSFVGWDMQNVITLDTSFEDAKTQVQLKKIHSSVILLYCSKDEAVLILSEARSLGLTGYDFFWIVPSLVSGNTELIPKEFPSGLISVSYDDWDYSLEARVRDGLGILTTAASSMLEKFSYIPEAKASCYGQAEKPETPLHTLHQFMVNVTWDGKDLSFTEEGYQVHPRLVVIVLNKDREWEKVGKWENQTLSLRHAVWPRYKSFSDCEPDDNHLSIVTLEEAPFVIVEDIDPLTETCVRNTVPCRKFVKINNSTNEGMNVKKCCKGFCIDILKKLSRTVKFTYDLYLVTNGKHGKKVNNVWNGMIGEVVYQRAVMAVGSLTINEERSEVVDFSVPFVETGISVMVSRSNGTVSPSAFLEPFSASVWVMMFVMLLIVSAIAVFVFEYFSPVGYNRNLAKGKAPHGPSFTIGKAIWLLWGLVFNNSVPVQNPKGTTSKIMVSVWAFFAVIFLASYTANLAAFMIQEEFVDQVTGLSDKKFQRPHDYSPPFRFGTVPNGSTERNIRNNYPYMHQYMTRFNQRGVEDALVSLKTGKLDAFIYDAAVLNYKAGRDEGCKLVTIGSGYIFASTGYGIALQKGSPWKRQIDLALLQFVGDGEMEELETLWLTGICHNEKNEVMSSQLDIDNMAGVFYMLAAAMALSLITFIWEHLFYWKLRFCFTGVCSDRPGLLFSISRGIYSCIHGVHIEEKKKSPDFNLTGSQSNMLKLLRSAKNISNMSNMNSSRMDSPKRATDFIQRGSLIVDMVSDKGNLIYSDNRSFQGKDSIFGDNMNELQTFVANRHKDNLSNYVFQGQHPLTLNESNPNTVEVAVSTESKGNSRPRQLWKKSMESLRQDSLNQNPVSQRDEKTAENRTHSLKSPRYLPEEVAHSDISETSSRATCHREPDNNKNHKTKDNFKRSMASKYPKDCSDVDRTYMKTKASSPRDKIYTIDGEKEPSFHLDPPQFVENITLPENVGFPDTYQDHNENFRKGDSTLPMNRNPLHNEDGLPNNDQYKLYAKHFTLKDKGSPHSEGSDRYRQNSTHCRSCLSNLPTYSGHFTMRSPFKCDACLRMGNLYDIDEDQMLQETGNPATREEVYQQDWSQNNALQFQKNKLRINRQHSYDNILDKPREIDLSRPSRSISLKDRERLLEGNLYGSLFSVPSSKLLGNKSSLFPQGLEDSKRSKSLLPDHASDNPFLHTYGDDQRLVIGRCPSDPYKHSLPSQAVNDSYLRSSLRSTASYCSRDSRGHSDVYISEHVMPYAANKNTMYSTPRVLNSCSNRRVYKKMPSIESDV

CN1CC[C@@]23CCCC[C@@H]2[C@@H]1Cc1ccc(O)cc13 [dextrorphan]
Min IMCI/IControl ([1]; 50 μM dextrorphan, pH 7.2): 0.549 ± 0.043 | MCI exhibited (in words) ([1]; pH 7.2): displayed MCI

CC12CC3CC(C)(C1)CC(N)(C3)C2 [memantine]
IC50 [2]: 51.4 ± 5.1 µM | LogP [3]: ~ 3 | NMDAR inhibition by intracellular drug (in words) [4]: not to cause NMDAR inhibition | IC50 ([5]; traditional IC50, pH 7.2, WT, −65 mV): 1.71 ± 0.06 µM | IC50 ([5]; traditional IC50, pH 9.0, WT): 3.43 ± 0.61 µM | MCI at depolarized Vm (in words) ([6]; 100 μM memantine, 35 mV): nearly abolished | pKa [7]: 10.4 | MCI of native NMDARs (in words) [8]: subject to MCI | IC50 [9]: 1.65 ± 0.09 µM | Uncharged % ([10]; pH 6.3): 0.008% | [Uncharged] at 100 μM ([10]; pH 6.3): 8 nM | Uncharged % ([10]; pH 7.2): 0.063% | [Uncharged] at 100 μM ([10]; pH 7.2): 63 nM | Uncharged % ([10]; pH 9.0): 3.8% | [Uncharged] at 100 μM ([10]; pH 9.0): 3800 nM | time constant of current decay following the preinhibition peak ([1]; 100 μM memantine, pH 7.2, from point-by-point ratios): 46.4 ± 4.1 ms | time constant of MCI onset ([1]; 100 μM memantine, pH 7.2, likely faster than decay time constant): < 46.4 ms | IC50 ([1]; Memantine MCI IC50, pH 7.2 (Fig. 1h data set)): 71 ± 1.7 µM | IC50 ([1]; Memantine MCI IC50, pH 9.0 jump): 8.77 ± 3.26 µM | IC50 ([1]; Memantine MCI IC50 of WT receptors, pH 7.2 (additional data set, Fig. 6h)): 68.6 ± 4.8 µM | potency estimated from few doses ([1]; tsA201, pH 6.3, read-out: Memantine MCI IC50): 841 ± 5 µM | IC50 [11]: 1.49 ± 0.2 µM | IC50 [12]: 148 ± 2.8 µM

CC12CC3CC1(C)C1(C)CC3(CN)CC21C [RL-208]
Min IMCI/IControl ([1]; 20 μM RL-208, pH 7.2): 0.275 ± 0.017 | MCI exhibited (in words) ([1]; pH 7.2): displayed MCI

C[C@]12N[C@H](Cc3ccccc31)c1ccccc12 [MK-801]
Min IMCI/IControl [13]: 0.612 ± 0.019 | Min IMCI/IControl ([1]; 1 μM MK-801, pH 7.2): 0.459 ± 0.035 | τM of MCI onset ([1]; 1 μM MK-801, pH 7.2): 1002 ± 135 ms | Min IMCI/IControl ([1]; 10 μM MK-801, pH 7.2): 0.097 ± 0.029 | τM of MCI onset ([1]; 10 μM MK-801, pH 7.2): 311 ± 59 ms | MCI exhibited (in words) ([1]; pH 7.2): displayed MCI | τM faster at 10 μM than at 1 μM MK-801 ([1]; pH 7.2): ~ 3 fold

CNC1(c2ccccc2Cl)CCCCC1=O (stereo not shown) [ketamine]
MCI exhibited (in words) [6]: does not exhibit MCI

c1ccc(C2(N3CCCCC3)CCCCC2)cc1 [PCP, phencyclidine]
Min IMCI/IControl ([1]; 10 μM PCP, pH 7.2): 0.409 ± 0.063 | MCI exhibited (in words) ([1]; pH 7.2): displayed MCI

CN(C)C12CC3CC(C)(CC(C)(C3)C1)C2.Cl [DMM, N,N,3,5-tetramethyladamantan-1-amine hydrochloride]
melting point: 180 °C | IC50 [5, 15]: 16.8 ± 1.5 µM | IC50 [14]: 28.4 ± 1.4 µM | Min IMCI/IControl ([1]; 165 μM DMM, constant pH 9.0): 0.402 ± 0.037 | MCI exhibited (in words) [1, 16]: strong MCI

CC12CC3CC(C)(C1)CC([N+](C)(C)C)(C3)C2 [TMM, N,N,N,3,5-pentamethyladamantan-1-ammonium iodide]
IC50 [5, 15]: 72.3 ± 14.2 µM | Min IMCI/IControl ([1]; 1 mM TMM, constant pH 9.0): 0.987 ± 0.039 | MCI exhibited (in words) [1, 16]: no MCI

CC12CC3CC(C)(C1)CC([N+](C)(C)C)(C3)C2 (as salt: iodide) [TMM, N,N,N,3,5-pentamethyladamantan-1-ammonium iodide]
melting point: > 200 °C (dec.)
